≈ marks a conversion by molar mass, not a printed value. Where “and” joins values, the source holds several entries; their conditions need not be identical. Equal values may be shown once.
Assays:
[1] = tested on: membrane bound VRR (competitor Ac-VSR); test: Competitive inhibition of drug-VRR cantilever response by Ac-VSR in solution; assay type: binding; conditions: for IC50: Van 50 μM or Ori 0.1 μM against VRR cantilever, fit of equation (1), read-out: IC50 (concentration of antagonist Ac-VSR giving 50% inhibition of drug-receptor interactions at the surface); for Ac-VSR concentration required to inhibit the mechanical response: Van 50 μM, Ori 0.1 μM against VRR
Description: In the first set of experiments, we assessed whether the 2-D boundary layer could mediate more efficient complex aggregation of antibiotics and thus lead to enhanced signal transduction compared to a 3-D solution. To achieve this, diacetyl vancomycin susceptible receptor (or Ac-VSR)[14] was added to the solution containing Van or Ori in order to act as a competitor against membrane bound VRR. […] The concentrations of Van and Ori in solution were kept constant at 50 μM and 0.1 μM respectively. These particular concentrations were chosen because (1) they give rise to relatively large mechanical bending signals, (2) they fall within the linear portions of the Langmuir adsorption isotherms, and (3) they require relatively low levels of Ac-VSR to inhibit the mechanical response at the surface. We therefore reasoned that if the interaction between a drug and Ac-VSR is independent of any surface effects then the amount of Ac-VSR which inhibits the mechanical response at a surface is expected to be the same for both Van and Ori. The concentration of antagonist (Ac-VSR) that gives rise to 50% inhibition (IC50) of drug-receptor interactions at the surface was used as measure of membrane effects on the association kinetics and mechanical response. […] To calculate the IC50, we analyzed the data using equation (1), whose detailed derivation has been reported previously.
Here σeq is the equilibrium mechanical stress, σligand1 is the mechanical stress generated by ligand1 in the absence of a competing ligand2, σligand2 is the corresponding minimum stress generated by ligand1 in the presence of a large excess of the concentration of competing ligand2. […] The IC50 for Ori is 3-fold larger than that of Van.

[2] = tested on: methicillin-susceptible Staphylococcus aureus (MSSA) ATCC 29213; test: MIC by broth microdilution (CLSI M07-A8), with PS80; assay type: cell-based
Description: Determination of MIC values to methicillin-susceptible Staphylococcus aureus (MSSA).
Minimum Inhibitory Concentration (MIC) is defined as the lowest concentration of antibacterial agent required to inhibit growth of a microorganism after incubation. The antibiotics vancomycin (Van) and ristomycin (Rist) were obtained from Sigma-Aldrich while chloroeremomycin (CE) and oritavancin (Ori) were obtained from the Medicine Company Inc., U.S.A. To prepare antibiotic stock solutions for MICs assay, 5 mg/ml of each drug was dissolved in water containing an appropriate volume of 0.002% polysorbate-80 or PS80 obtained from Sigma-Aldrich which corresponds to 20 µM to eliminate nonspecific interactions of drugs to surfaces particularly for Ori which is known to bind to glass and plastics13. Microbiological broth with PS80 maintained at 20 µM was used in the drug dilution steps until the required final (assay) concentration. Diluted concentrations of each drug were assayed by adding an inoculum of methicillin-susceptible Staphylococcus aureus (MSSA) ATCC 29213 cells and the MIC determined by broth microdilution according to Clinical Laboratory Standards Institute (CLSI) methodology M07-A8 (CLSI 2009a)14. The results as shown in Supplementary Table S2 for each antibiotic against clinical isolate of MSSA ATCC 29213 strains conducted in the presence of […]
PS80 are within the quality control ranges defined in the guideline15. […]

VRR in solution = conditions: ref. 1 (Van), ref. 6 (Rist), ref. 8 (CE), ref. 2 (Ori), supplementary references, read-out: Ksurf Solution; cited from earlier work
[3] = ligand-ligand dissociation constant in solution; ref. 2 (Van, CE, Ori), ref. 5 (Rist), supplementary references; read-out: K1 Solution (complex aggregation constant); cited from earlier work
[4] = MSSA ATCC 29213, with PS80, converted from mg/l

Row | SMILES | IC50 for Ori relative to Van ([1]; Ac-VSR competition against VRR) | IC50 [1] | Ac-VSR concentration required to inhibit the mechanical response [1] | MIC [2, 4] | MIC ([2]; Staphylococcus aureus) | Kd (VRR in solution) | Kd [3]
1 | CN[C@H](CC(C)C)C(=O)N[C@H]1C(=O)N[C@@H](CC(N)=O)C(=O)N[C@H]2C(=O)N[C@H]3C(=O)N[C@H](C(=O)N[C@H](C(=O)O)c4cc(O)cc(O)c4-c4cc3ccc4O)[C@H](O[C@H]3C[C@](C)(N)[C@@H](O)[C@H](C)O3)c3ccc(c(Cl)c3)Oc3cc2cc(c3O[C@@H]2O[C@H](CO)[C@@H](O)[C@H](O)[C@H]2O[C@H]2C[C@](C)(NCc3ccc(-c4ccc(Cl)cc4)cc3)[C@@H](O)[C@H](C)O2)Oc2ccc(cc2Cl)[C@H]1O [Ori, oritavancin] | 3 fold | 50.7 ± 2.1 µM | more than 500 μM | 0.03 µM (≈ 0.0538 µg/mL) | 0.06 µg/mL and 0.03 µM | 4200 µM | 1.6 µM
2 | CN[C@H](CC(C)C)C(=O)N[C@H]1C(=O)N[C@@H](CC(N)=O)C(=O)N[C@H]2C(=O)N[C@H]3C(=O)N[C@H](C(=O)N[C@H](C(=O)O)c4cc(O)cc(O)c4-c4cc3ccc4O)[C@H](O)c3ccc(c(Cl)c3)Oc3cc2cc(c3O[C@@H]2O[C@H](CO)[C@@H](O)[C@H](O)[C@H]2O[C@H]2C[C@](C)(N)[C@H](O)[C@H](C)O2)Oc2ccc(cc2Cl)[C@H]1O [Van, vancomycin] |  | 15.4 ± 0.2 µM | 500 µM | 0.67 µM (≈ 0.971 µg/mL) | 1 µg/mL and 0.67 µM | 2400 µM | 20000 µM

From paper PMC5290737, “Surface mediated cooperative interactions of drugs enhance mechanical forces for antibiotic action” (Scientific Reports, 2017)
